Results as given in patent US8642629B2, “Naphthylacetic acids” (Hoffmann-La Roche Inc., priority 2008, dated 2014).

What was measured:
human CRTH2 [1] = molecular target: T1, human CRTH2 (Homo sapiens, UniProt Q9Y5Y4); experiment: Human CRTH2 Receptor Binding Assay (whole cell, [3H]ramatroban competition); details: CHO-K1 cells expressing human CRTH2 and G-alpha16; 20 nM [3H]ramatroban; 1 hour, room temperature
T1 construct: expressed in transfected cells; host or cells: CHO-K1
T1 sequence (Q9Y5Y4 1-395): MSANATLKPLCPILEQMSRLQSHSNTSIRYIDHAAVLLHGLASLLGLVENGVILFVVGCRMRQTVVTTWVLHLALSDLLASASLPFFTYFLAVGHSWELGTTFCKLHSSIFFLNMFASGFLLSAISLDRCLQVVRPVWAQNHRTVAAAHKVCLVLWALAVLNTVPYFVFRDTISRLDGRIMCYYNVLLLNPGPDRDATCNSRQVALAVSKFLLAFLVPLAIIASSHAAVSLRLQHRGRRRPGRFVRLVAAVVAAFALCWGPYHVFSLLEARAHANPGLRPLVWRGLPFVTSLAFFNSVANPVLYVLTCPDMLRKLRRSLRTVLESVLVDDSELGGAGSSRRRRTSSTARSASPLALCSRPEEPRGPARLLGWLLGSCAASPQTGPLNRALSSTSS
Outline: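 Whole CHO-K1 cells stably expressing human CRTH2 and G-alpha16 were incubated with 20 nM [3H]ramatroban and compound for 1 h at room temperature in PBS with 10 mM MgCl2 and 0.06% BSA, then filtered and counted. Non-specific binding was defined with 10 μM 15(R)-15-methyl PGD2, and IC50 was fitted by 4-parameter logistic from 7 concentrations.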

human CRTH2 [2] = molecular target: T1, human CRTH2; experiment: Calcium Flux Assay Using Fluorometric Imaging Plate Reader (FLIPR); assay type: cell-based; details: CHO-K1 cells transfected with G-alpha 16 and human CRTH2; inhibition of ligand (DK-PGD2) response
Method: CHO-K1 cells previously transfected with G-alpha 16 were subsequently transfected with the human CRTH2 receptor and the neomycin resistance gene. Following selection in 800 μg/mL G418 (geneticin), individual clones were assayed for their receptor expression based on staining with an anti human CRTH2 IgG, followed by assaying for their response to 13,14-dihydro-15-keto Prostaglandin D2 (DK-PDG2) (ligand) in the Ca^2+ Flux assay. Positive clones were then cloned by limiting dilution cloning. […] Cells were harvested with trypsin-EDTA (trypsin-ethylenediaminetetraacetic acid) and counted using ViaCount® reagent (from Guava Technologies, Inc. which contains two DNA-binding dyes that enable the reagent user to distinguish between viable and non-viable cells). […]
After incubation, both the cell and “assay plate” plates were brought to the fluorometric imaging plate reader (FLIPR®) and 20 μL of the diluted compounds were transferred to the cell plates by the FLIPR®. […] During the assay, fluorescence readings were taken simultaneously from all 384 wells of the cell plate every 1.5 seconds. Five readings were taken to establish a stable baseline, then 20 μL of sample was rapidly (30 μL/sec) and simultaneously added to each well of the cell plate. The fluorescence was continuously monitored before, during and after sample addition for a total elapsed time of 100 seconds. […]

Structure (SMILES)	IC50 (human CRTH2 [1]) [nM]	IC50 (human CRTH2 [2]) [nM]
CCS(=O)(=O)c1ccc(Oc2cc(CC(=O)O)cc3ccc(F)cc23)cc1 [Example 1-1, [4-(4-ethanesulfonyl-phenoxy)-6-fluoro-naphthalen-2-yl]-acetic acid]	2.3	5000
CCS(=O)(=O)c1ccc(Oc2c(C)c(CCC(=O)O)cc3ccc(F)cc23)cc1 [Example 7-1, 3-[4-(4-ethanesulfonyl-phenoxy)-6-fluoro-3-methyl-naphthalen-2-yl]-propionic acid]	130	4200
CCS(=O)(=O)c1ccc(Oc2c(C)c(C(C)C(=O)O)cc3ccc(F)cc23)nc1 (centres unmarked) [Example 22-1, 2-[4-(5-Ethanesulfonyl-pyridin-2-yloxy)-6-fluoro-3-methyl-naphthalen-2-yl]-propionic acid]	378	–
